The values that follow are results of earlier work, collected in patent US20250288604A1, “SUGAR-CONJUGATED LIPID NANOPARTICLES FOR TARGETED DELIVERY OF SIRNA TO HEPATOCYTES” (University of Virginia Patent Foundation, priority 2022, published 2025).

Broadly, the pKa is the pH at which an ionisable group is half protonated.

The conditions of this data set: single ionizable lipid.

As for `CCCCCCCCC(CCCCCC)C(=O)OCCCCCCN(CCCCO)CCCCCCOC(=O)C(CCCCCC)CCCCCCCC` (stereo not drawn) [ALC-0315], the pKa is recorded as 6.09.
As to `CCCCC/C=C\C/C=C\CCCCCCCCC(CCCCCCCC/C=C\C/C=C\CCCCC)OC(=O)CCCN(C)C` [DLinMc3DMA, (6Z,9Z,28Z,31Z)-Heptatriaconta-6,9,28,31-tetraen-19-yl 4-(dimethylamino) butanoate], the pKa was 6.44.
For `CCCCCCCCCCCOC(=O)CCCCCN(CCO)CCCCCCCC(=O)OC(CCCCCCCC)CCCCCCCC` [SM-102], the pKa is listed as 6.75.
